Data taken from patent US20070015743A1, “Quinazoline derivatives as antitumor agents” (priority 2003, published 2007).

Key:
[1] = biological target: T1, erbB2 tyrosine kinase (Homo sapiens, UniProt P04626); test: Protein tyrosine kinase phosphorylation assay, Test (a), erbB2; type: biochemical; settings: read-out: IC50 (μM) Test (a): Inhibition of erbB2 tyrosine kinase protein phosphorylation
T1 construct: Recombinant intracellular fragments of EGFR, erbB2 and erbB4; made in house; host or cells: baculovirus/Sf21 insect cells (cleared lysate used)
Description: (§1) Recombinant intracellular fragments of EGFR, erbB2 and erbB4 (accession numbers X00588, X03363 and L07868 respectively) were cloned and expressed in the baculovirus/Sf21 system. Lysates were prepared from these cells by treatment with ice-cold lysis buffer (20 mM N-2-hydroxyethylpiperizine-N′-2-ethanesulfonic acid (HEPES) pH7.5, 150 mM NaCl, 10% glycerol, 1% Triton X-100, 1.5 mM MgCl2, 1 mM ethylene glycol-bis(β-aminoethyl ether)N′,N′,N′,N′-tetraacetic acid (EGTA), plus protease inhibitors and then cleared by centrifugation.
Constitutive kinase activity of these recombinant proteins was determined by their ability to phosphorylate a synthetic peptide (made up of a random co-polymer of Glutamic Acid, Alanine and Tyrosine in the ratio of 6:3:1). Specifically, Maxisorb™ 96-well immunoplates were coated with synthetic peptide (0.2 μg of peptide in a […] phosphate buffered saline (PBS) solution and incubated at 4° C. overnight). Plates were washed in 50 mM HEPES pH 7.4 at room temperature to remove any excess unbound synthetic peptide. EGFR or erbB2 activities were assessed by incubation in peptide coated plates for 20 minutes at room temperature in 100 mM HEPES pH 7.4 at room temperature, adenosine trisphosphate (ATP) at Km concentration for the respective enzyme, 10 mM MnCl2, 0.1 mM Na3VO4, 0.2 mM DL-dithiothreitol (DTT), 0.1% Triton X-100 with test compound in DMSO (final concentration of 2.5%). […]
The immobilised phospho-peptide product of the reaction was detected by immunological methods. […] After further washing, HRP activity in each well of the plate was measured colorimetrically using 22′-Azino-di-[3-ethylbenzthiazoline sulfonate (6)]diammonium salt crystals (ABTS™ from Roche) as a substrate. Quantification of colour development and thus enzyme activity was achieved by the measurement of absorbance at 405 nm on a Molecular Devices ThermoMax microplate reader. Kinase inhibition for a given compound was expressed as an IC50 value. […] The range of phosphorylation was calculated from the positive (vehicle plus ATP) and negative (vehicle minus ATP) control values.

[2] = biological target: T2, erbB2 (Homo sapiens, UniProt P04626); test: Clone 24 phospho-erbB2 cell assay, Test (c); type: cell-based; settings: MCF7 derived cell line overexpressing erbB2 (Clone 24 cells); read-out: IC50 (μM) Test (c): Inhibition of erbB2 tyrosine kinase protein phosphorylation
T2 construct: a cell line that overexpresses full length wild type erbB2 protein; expressed in transfected cells; host or cells: MCF7 (breast carcinoma) derived 'Clone 24' cells
Description: This immunofluorescence end point assay measures the ability of a test compound to inhibit the phosphorylation of erbB2 in a MCF7 (breast carcinoma) derived cell line which was generated by transfecting MCF7 cells with the full length erbB2 gene using standard methods to give a cell line that overexpresses full length wild type erbB2 protein (hereinafter ‘Clone 24’ cells).
Clone 24 cells were cultured in Growth Medium (phenol red free Dulbecco's modified Eagle's medium (DMEM) containing 10% foetal bovine serum, 2 mM glutamine and 1.2 mg/ml G418) in a 7.5% CO2 air incubator at 37° C. Cells were harvested from T75 stock flasks by washing once in PBS (phosphate buffered saline, pH7.4, Gibco No. 10010-015) and harvested using 2 mls of Trypsin (1.25 mg/ml)/ethylaminediaminetetraacetic acid (EDTA) (0.8 mg/ml) solution. The cells were resuspended in Growth Medium. Cell density was measured using a haemocytometer and viability was calculated using Trypan Blue solution before being further diluted in Growth Medium and seeded at a density of 1×10^4 cells per well (in 100 ul) into clear bottomed 96 well plates (Packard, No. 6005182).
3 days later, Growth Medium was removed from the wells and replaced with 100 ul Assay Medium (phenol red free DMEM, 2 mM glutamine, 1.2 mg/ml G418) either with or without erbB inhibitor compound. Plates were returned to the incubator for 4 hrs and then 20 μl of 20% formaldehyde solution in PBS was added to each well and the plate was left at room temperature for 30 minutes. This fixative solution was removed with a multichannel pipette, 100 μl of PBS was added to each well and then removed with a multichannel pipette and then 50 μl PBS was added to each well. Plates were then sealed and stored for up to 2 weeks at 4° C.
Immunostaining was performed at room temperature. […]
The Fluorescence signal is each well was measured using an Acumen Explorer Instrument (Acumen Bioscience Ltd.), a plate reader that can be used to rapidly quantitate features of images generated by laser-scanning. […]

[3] = biological target: T3, EGFR tyrosine kinase (Homo sapiens, UniProt P00533); test: Protein tyrosine kinase phosphorylation assay, Test (a), EGFR; type: biochemical; settings: read-out: IC50 (μM) Test (a): Inhibition of EGFR tyrosine kinase protein phosphorylation
T3 construct: Recombinant intracellular fragments of EGFR, erbB2 and erbB4; made in house; host or cells: baculovirus/Sf21 insect cells (cleared lysate used)
Description: This test measures the ability of a test compound to inhibit the phosphorylation of a tyrosine containing polypeptide substrate by EGFR tyrosine kinase enzyme.
as §1
Constitutive kinase activity of these recombinant proteins was determined by their ability to phosphorylate a synthetic peptide (made up of a random co-polymer of Glutamic Acid, Alanine and Tyrosine in the ratio of 6:3:1). […]
The immobilised phospho-peptide product of the reaction was detected by immunological methods. […] After further washing, HRP activity in each well of the plate was measured colorimetrically using 22′-Azino-di-[3-ethylbenzthiazoline sulfonate (6)]diammonium salt crystals (ABTS™ from Roche) as a substrate. Quantification of colour development and thus enzyme activity was achieved by the measurement of absorbance at 405 nm on a Molecular Devices ThermoMax microplate reader. […]

T1 sequence (P04626 676-1255 limits assumed): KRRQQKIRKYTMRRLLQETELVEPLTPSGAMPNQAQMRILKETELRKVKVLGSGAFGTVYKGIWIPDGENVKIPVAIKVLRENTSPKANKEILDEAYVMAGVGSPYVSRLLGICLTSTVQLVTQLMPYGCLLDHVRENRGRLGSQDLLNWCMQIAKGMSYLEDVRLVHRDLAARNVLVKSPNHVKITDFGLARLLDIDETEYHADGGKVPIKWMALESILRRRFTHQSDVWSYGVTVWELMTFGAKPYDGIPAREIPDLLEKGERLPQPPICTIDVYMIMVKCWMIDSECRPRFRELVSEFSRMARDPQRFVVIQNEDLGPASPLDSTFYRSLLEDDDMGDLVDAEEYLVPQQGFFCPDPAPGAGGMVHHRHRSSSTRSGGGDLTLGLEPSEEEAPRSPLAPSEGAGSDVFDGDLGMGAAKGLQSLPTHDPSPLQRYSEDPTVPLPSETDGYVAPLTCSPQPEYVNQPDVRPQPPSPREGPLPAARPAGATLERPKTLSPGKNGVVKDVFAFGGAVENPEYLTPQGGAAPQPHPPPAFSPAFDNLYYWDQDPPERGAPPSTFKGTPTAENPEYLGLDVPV
T2 sequence (P04626 23-1255): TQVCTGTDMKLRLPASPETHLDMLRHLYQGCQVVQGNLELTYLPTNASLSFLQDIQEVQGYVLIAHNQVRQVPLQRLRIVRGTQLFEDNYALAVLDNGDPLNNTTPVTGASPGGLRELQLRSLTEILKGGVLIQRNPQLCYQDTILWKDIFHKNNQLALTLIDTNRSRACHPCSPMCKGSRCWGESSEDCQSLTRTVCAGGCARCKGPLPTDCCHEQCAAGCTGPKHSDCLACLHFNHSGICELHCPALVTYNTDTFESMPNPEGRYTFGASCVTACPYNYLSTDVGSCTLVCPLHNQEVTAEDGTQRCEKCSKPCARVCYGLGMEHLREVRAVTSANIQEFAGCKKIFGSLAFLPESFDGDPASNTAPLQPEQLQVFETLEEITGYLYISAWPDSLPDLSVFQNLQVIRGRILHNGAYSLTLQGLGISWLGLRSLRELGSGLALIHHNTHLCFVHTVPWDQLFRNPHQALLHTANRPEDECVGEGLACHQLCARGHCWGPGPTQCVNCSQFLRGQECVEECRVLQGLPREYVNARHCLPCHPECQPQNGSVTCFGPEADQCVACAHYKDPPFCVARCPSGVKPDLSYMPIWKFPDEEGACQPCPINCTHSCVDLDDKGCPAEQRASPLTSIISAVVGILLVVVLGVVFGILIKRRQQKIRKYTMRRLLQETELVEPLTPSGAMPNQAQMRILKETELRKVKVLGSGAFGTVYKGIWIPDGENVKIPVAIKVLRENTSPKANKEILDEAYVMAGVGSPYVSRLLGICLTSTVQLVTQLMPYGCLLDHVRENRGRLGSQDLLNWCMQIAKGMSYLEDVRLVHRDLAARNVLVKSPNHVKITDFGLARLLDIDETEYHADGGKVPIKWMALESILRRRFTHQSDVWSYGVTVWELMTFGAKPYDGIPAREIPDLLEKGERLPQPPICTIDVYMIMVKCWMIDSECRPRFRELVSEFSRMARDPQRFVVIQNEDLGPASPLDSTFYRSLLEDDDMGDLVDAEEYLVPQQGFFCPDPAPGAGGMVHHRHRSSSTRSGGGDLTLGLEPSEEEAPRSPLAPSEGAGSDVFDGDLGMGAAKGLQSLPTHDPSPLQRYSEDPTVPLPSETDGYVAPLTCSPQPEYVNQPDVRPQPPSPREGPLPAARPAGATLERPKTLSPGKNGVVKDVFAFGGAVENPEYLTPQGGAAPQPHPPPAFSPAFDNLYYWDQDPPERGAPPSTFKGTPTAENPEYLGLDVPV
T3 sequence (P00533 669-1210 limits assumed): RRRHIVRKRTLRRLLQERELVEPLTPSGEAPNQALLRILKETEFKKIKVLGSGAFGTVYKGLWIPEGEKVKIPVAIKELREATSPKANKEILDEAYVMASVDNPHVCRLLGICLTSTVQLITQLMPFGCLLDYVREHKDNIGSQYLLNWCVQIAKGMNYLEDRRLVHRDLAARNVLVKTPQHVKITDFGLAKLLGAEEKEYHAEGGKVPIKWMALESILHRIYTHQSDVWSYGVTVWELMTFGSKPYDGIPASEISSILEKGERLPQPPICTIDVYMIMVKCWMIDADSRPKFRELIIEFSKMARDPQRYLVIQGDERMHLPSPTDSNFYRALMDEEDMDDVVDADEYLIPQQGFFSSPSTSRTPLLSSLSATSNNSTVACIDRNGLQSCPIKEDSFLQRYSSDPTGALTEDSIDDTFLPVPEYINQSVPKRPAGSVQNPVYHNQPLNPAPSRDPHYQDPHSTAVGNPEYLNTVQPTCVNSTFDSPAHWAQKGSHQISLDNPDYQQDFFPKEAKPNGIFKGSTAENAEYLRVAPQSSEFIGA

Row | Structure (SMILES) | IC50 [1] | IC50 [2] | IC50 [3]
1 | CN(C)CC(=O)N1CCC[C@@H]1COc1cccc2ncnc(Nc3ccc(OCc4cncs4)c(Cl)c3)c12 [Example 25, N-[3-Chloro-4-(1,3-thiazol-5-ylmethoxy)phenyl]-5-({(2R)-1-[(dimethylamino)acetyl]pyrrolidin-2-yl}methoxy)quinazolin-4-amine] | 0.048 µM | 1.4 µM | 
2 | Cc1cccc(COc2ccc(Nc3ncnc4cccc(OC[C@@H]5CCCN5C(=O)CO)c34)cc2Cl)n1 [Example 40] | 0.63 µM | 2.4 µM | 33 µM
3 | O=C(CO)N1CCC[C@H](COc2cccc3ncnc(Nc4ccc(OCc5cscn5)c(Cl)c4)c23)C1 [Example 78, 2-((3S)-3-{[(4-{[3-chloro-4-(1,3-thiazol-4-ylmethoxy)phenyl]amino}quinazolin-5-yl)oxy]methyl}piperidin-1-yl)-2-oxoethanol] | 0.034 µM | 0.19 µM | 2.4 µM
